Measured values: patent US4571405A, “Anti-allergic chromone- or thiochromone-5-oxamic acid derivatives, compositions, and method of use therefor” (Miles Laboratories, Inc., priority 1984, dated 1986)
Several values for one entry are separate records, joined by “and”; a condition that tells them apart may be missing. Equal values may be shown once. Read-outs that look alike come from different tables or passages of the source.

Columns and labels:
[1] = tested on: passive cutaneous anaphylaxis reaction (PCA reaction); test: Passive cutaneous anaphylaxis reaction (PCA reaction), intravenous, rats; format: in vivo, Male Lister-Hooded rats; conditions: for ED50: Rattus norvegicus, iv
Protocol: (§1) The antiallergic activity of the compounds of the present invention was determined by a passive cutaneous anaphylaxis reaction (PCA reaction) which was conducted as described in Life Sciences, 1, p. 465 (1963) and Immunology, 12, p. 113 (1967) both of which are incorporated herein by reference. Male Lister-Hooded rats were depilated and injected intradermally with a dilution of rat serum containing IgE antibody against ovalbumin. Twenty-four hours later the rats were challenged with an intravenous injection of the antigen (ovalbumin) and a blue indicator dye. The intensity of the passive cutaneous anaphylactic reaction was determined by observing the size of discrete blue sites (from the indicator) on the backs of the rats. Simultaneous with the challenge, one group of the rats was injected (intravenously) with various concentrations of test compounds (i.e., compounds of formula I), in order to determine the 50 percent inhibitory concentration (IC50) for each of said compounds tested. The other group of rats was administered intravenous sodium cromoglycate (SCG), a known antiallergic agent and thus served as a positive control. The results of this test are set forth in Table 1 where the IC50 for the test compounds and SCG are expressed irn micromoles per kiligram of body weight.

[2] = tested on: PCA reaction; test: Oral activity in PCA reaction (intragastric dose), rats; format: in vivo, Male Lister-Hooded rats; conditions: 30 mg/kg intragastrically, thirty minutes prior to antigen challenge, relative to control; for inhibition at 30 mg/kg: Rattus norvegicus, po, read-out: Percent Inhibition of PCA Reaction
Protocol: as §1
Following substantially the same technique as described above, the oral activity of various test compounds (i.e., compounds of formula I) was determined. Thirty minutes prior to the antigen challenge described above, a dose of 30 mg/kg of one of the test compounds was administered intragastrically and the percent inhibition of the percutaneous anaphylactic reaction was determined (as compared to control animals where no test compound was administered). The results of this test are set forth in Table 2 and are expressed as percent inhibition of anaphylaxis relative to control.

[3] = tested on: mast cells; test: Inhibition of antigen-induced histamine (spasmogen) release from passively sensitized peritoneal mast cells; format: cell-based, rats
Protocol: Peritoneal mast cells passively sensitized to antigen (dinitrophenyl-ovalbumin) 24 hours previously were obtained by lavage. Pools of cells were prepared from ten or more rats and aliquots (100 μl) were dispensed into polyethylene tubes. To each tube was added one of the test compounds at a concentration shown in Table 3 together with a constant dose (1 μg) of antigen (dinitrophenyl-bovine serum albumin). Each treatment was repeated in at least three tubes. All of the tubes were incubated at 37° C. for 10 minutes. The mast cells were sedimented by centrifugation and the supernatant fluid removed. The concentration of histamine released as a result of the addition of antigen was determined fluorimetrically and comparisons made with the concentration of histamine released in the absence of drug using the formula: [formula] where d=histamine release in presence of test compound,
a=histamine release in presence of antigen along
s=histamine release in presence of saline or drug vehicle (i.e., control).
The results of this test are set forth in Table 3 and are expressed as a percent inhibition of spasmogen release for each concentration (in moles) of the test compound utilized in the above-described procedure.

[4] = simultaneous with antigen (ovalbumin) challenge, per kilogram of body weight, read-out: INHIBITION OF PCA REACTION IC50, Compound of Example No.

Row | Structure (SMILES) | inhibition at 30 mg/kg [2] [%] | Percent Inhibition of Mast Cell Histamine Release ([3]; 10^-2 (moles)) [%] | Percent Inhibition of Mast Cell Histamine Release ([3]; 10^-3 (moles)) [%] | Percent Inhibition of Mast Cell Histamine Release ([3]; 10^-4 (moles)) [%] | Percent Inhibition of Mast Cell Histamine Release ([3]; 10^-5 (moles)) [%] | Percent Inhibition of Mast Cell Histamine Release ([3]; 10^-6 (moles)) [%] | ED50 [1, 4] [µmol/kg] | further results
1 | O=C(O)C(=O)Nc1cccc2oc3c(c(=O)c12)CCCC3 [2,3cyclohexenochromone-5-oxamic acid, 2,3-cyclohexenochromone-5-oxamic acid] |  |  |  |  |  |  |  | INHIBITION OF PCA REACTION IC50, Compound of Example No. ([1]; intravenous, simultaneous with antigen (ovalbumin) challenge, per kilogram of body weight, listed as 2,3cyclohexeneochromone-5-oxamic acid): 11.2 micromoles/kilogram
2 | O=C(O)C(=O)Nc1cccc2oc3c(c(=O)c12)CCCC3 [Example I, Sodium 2,3-cyclohexenochromone-5-oxamate] | 27 | 85.7 | 78.6 | 10.9 | 12.6 | 12.0 | 10.4 | 
3 | CC1(C)CCc2sc3cccc(NC(=O)C(=O)O)c3c(=O)c2C1 [Example V, Sodium 2,3-(4',4'-dimethylcyclohexeno)thiochromone-5-oxamate] | 14 | 96.7 | 74.8 | 40.8 | 2.7 | 38.7 | 10 | 
4 | CC1(C)CCC2=C(C1)C(=O)c1c(NC(=O)C(=O)O)cccc1S2(=O)=O [Example VI, Sodium 2,3-(4',4'-dimethylcyclohexeno)thiochromone-5-oxamate-1,1-dioxide] | 27 | 95.1 | 86.9 | 44.1 | 3.7 | 4.4 | 16.5 | 
5 | CCC1CCc2oc3cccc(NC(=O)C(=O)O)c3c(=O)c2C1 (stereo not shown) [II, Sodium 2,3-(4'-ethylcyclohexeno)chromone-5-oxamate] | 46 |  |  |  |  |  | 15.5 | 
6 | CC1(C)CCc2oc3cccc(NC(=O)C(=O)O)c3c(=O)c2C1 [III, Sodium 2,3-(4',4'-dimethylcyclohexeno)chromone-5-oxamate] | 60 | 92.9 | 95.1 | 57.6 | 10.6 | 8.2 | 9.6 | 
7 | Cc1oc2cccc(NC(=O)C(=O)O)c2c(=O)c1C [IV, Sodium 2,3-dimethylchromone-5-oxamate] | 39 |  |  |  |  |  | 5 | 
8 | O=C(O)c1cc(=O)c2c(OCC(O)COc3cccc4oc(C(=O)O)cc(=O)c34)cccc2o1 [SCG, sodium cromoglycate, reference compound] |  |  |  |  |  |  |  | ED50 ([1]; intravenous sodium cromoglycate positive control, run alongside each test compound, read-out: INHIBITION OF PCA REACTION IC50, SCG): 3.6 µmol/kg; INHIBITION OF PCA REACTION IC50, SCG ([1]; intravenous sodium cromoglycate positive control, run alongside each test compound): 2.1 micromoles/kilogram and 1.8 micromoles/kilogram and 2.4 micromoles/kilogram
9 | O=C1c2ccccc2S(=O)(=O)c2cc(-c3nnn[nH]3)ccc21 [doxantrazole, reference compound] |  |  |  |  |  |  |  | Percent Inhibition of PCA Reaction [2]: ten
10 | CCCc1c2c(c(O)c3c(=O)cc(C(=O)O)oc13)CCCC2 [proxicromil, reference compound] |  |  |  |  |  |  |  | Percent Inhibition of PCA Reaction [2]: ten
